Reference: US5326902A, “Oxyalkyne compounds, pharmaceutical compositions containing them and processes for preparing such compounds and compositions” (Gruenenthal GmbH, priority 1992, dated 1994)

Assays:
Leukotriene-synthesis = experiment: Inhibition of Leukotriene-synthesis Induced by FMLP/merthiolate of Human Polymorphonuclear Leukocytes; format: cell-based; details: Leukocyte, 5 minutes preincubation at 37° C., centrifuged and resuspended in HBSS before merthiolate (40 μM) and FMLP (10^-7 M), read-out: IC50-value of the reversible inhibitory action
Protocol: Human granulocytes were isolated by dextran sedimentation and a Percoll gradient method and suspended in HBSS (Hanks buffered saline solution) at 1×10^7 cells/ml. The cells were incubated in the presence of a compound according to the invention or a solvent (ethanol and/or dimethyl sulfoxide) at 37° C. for 2 minutes, then with merthiolate (sodium ethylmercurithiosalicylate; 40 μM) for 2 minutes and thereafter with FMLP (formyl-methionyl-leucylphenylalanine; 10^-7 M) for 15 minutes. After solid phase extraction, the metabolites of arachidonic acid 5-HETE, LTB4, 6-trans-LTB4 -isomers, 20-OH-LTB4 and 20-COOH-LTB4 were identified by RP-HPLC (M. Haurand and L. Flohe in Biochem. Pharmacol. 38, 2129 to 2137 (1989)).
To investigate the reversibility of the inhibitory action, the cells were incubated with a compound according to the invention or a solvent (ethanol and/or dimethyl sulfoxide) at 37° C. for 5 minutes, centrifuged at 300 × g for 5 minutes, and resuspended in 2 ml of HBSS. Then the cells were incubated with merthiolate (40 μM) at 37° C. for 2 minutes and thereafter with FMLP (10^-7 M) for 15 minutes. The IC50 -value of the reversible inhibitory action was 2 μmolar when the compound prepared according to Example 1 was used.

5-lipoxygenase = experiment: Inhibition of 5-lipoxygenase in Rat Blood After Oral Administration (ex vivo iLTB4-formation); details: 21.5 mg/kg oral, male Wistar rats, one hour after administration
Protocol: The bioavailability of the compounds of formula I as 5-lipoxygenase inhibitors was characterized by means of an ex vivo biochemical assay method described by Tateson et al. in Brit. J. Pharmacol. 94, 528 (1988): A compound of formula I was orally administered to male rats (Wistar strain) at a dose of 21.5 mg/kg. After lethal CO2 -narcosis one hour after administration, the rats were bled by heart puncture with added heparin as an anticoagulant. Aliquots of the whole blood were incubated at 37° C. for 30 minutes in a water bath with calcium ionophore A 23 187 at an end concentration of 15 μg/ml. At the end of the incubation, the samples were centrifuged, and the concentration of the immunoreactive LTB4 (iLTB4) in aliquots of cell-free plasma was determined by radioimmunoassay (3H-LTB4 -RIA, Amersham). To enable calculation of the inhibition in percent of ex vivo iLTB4 -formation in whole rat blood treated with a compound according to the invention, rats orally treated with an appropriate vehicle solution were included in all experiments, and aliquots of their blood were run in parallel and were processed in the same way as described. The average iLTB4 -content of the plasma of the vehicletreated rats served as a 100% value. The activity in percent of the ex vivo iLTB4 -formation after oral administration of a compound according to the invention was calculated by dividing the average value of the iLTB4 -contents in ng iLTB4 /ml of the group treated with a compound according to the invention by the average value of the iLTB4 -contents in ng iLTB4 /ml of the vehicle treated group and subsequent multiplication by a factor of 100. The respective inhibition in percent was calculated by subtracting the activity in percent from 100.

12-lipoxygenase = target: T1, 12-lipoxygenase (Homo sapiens, UniProt P18054); experiment: Inhibition of 12-lipoxygenase in homogenates of human thrombocytes; format: biochemical; details: arachidonic acid 40 μM, indomethacin 10 μM, 25° C., read-out: IC50-value of the inhibitory action on 12-Lipoxygenase
T1 sequence (P18054 1-663): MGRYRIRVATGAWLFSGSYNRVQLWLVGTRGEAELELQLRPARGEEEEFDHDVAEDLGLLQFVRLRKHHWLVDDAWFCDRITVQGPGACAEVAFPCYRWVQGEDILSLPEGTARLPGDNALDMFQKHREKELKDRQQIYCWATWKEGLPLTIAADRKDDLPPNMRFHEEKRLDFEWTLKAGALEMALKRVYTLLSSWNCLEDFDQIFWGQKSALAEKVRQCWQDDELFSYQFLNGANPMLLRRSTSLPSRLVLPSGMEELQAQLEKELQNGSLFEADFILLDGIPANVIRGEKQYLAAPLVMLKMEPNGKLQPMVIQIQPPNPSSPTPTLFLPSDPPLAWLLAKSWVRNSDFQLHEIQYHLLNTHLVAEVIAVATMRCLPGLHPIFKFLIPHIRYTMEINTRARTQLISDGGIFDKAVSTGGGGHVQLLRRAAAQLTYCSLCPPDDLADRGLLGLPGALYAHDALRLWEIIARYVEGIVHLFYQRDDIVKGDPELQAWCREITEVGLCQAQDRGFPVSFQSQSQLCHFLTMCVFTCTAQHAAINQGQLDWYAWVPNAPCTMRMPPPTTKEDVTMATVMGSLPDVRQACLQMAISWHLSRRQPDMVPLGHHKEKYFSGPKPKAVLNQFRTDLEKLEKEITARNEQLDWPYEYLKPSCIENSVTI
Protocol: Human thrombocytes were suspended at 3×10^9 cells/ml, fumigated with nitrogen, and sonicated with ultrasonic energy while cooling in ice water. After centrifugation at 10.000 × g for 15 minutes, reduced glutathione (3 mM) was added. 1 ml portions of the 10,000 × g supernatant were incubated with a compound according to the invention or with ethanol at 25° C. for 4 minutes and then with 1-^14 C-labelled arachidonic acid (40 μM) for 7.5 minutes. In addition, indomethacin (10 μM) was added to each sample. The reaction was stopped by adding acetic acid, and then the metabolites of arachidonic acid were extracted with ethyl acetate and analyzed by thin layer chromatography. The distribution of the […] fractions was measured using a TLC-linear analyzer. The IC50 -values were determined graphically from semilogarithmic plots. The IC50 -value of the inhibitory action on 12-Lipoxygenase was 1 μmolar when the compound prepared according to Example 1 was used.

[1] = test system: bronchoconstriction elicited by ovalbumin; experiment: Allergen-induced bronchoconstriction in guinea pigs (Konzett-Rossler); format: in vivo, guinea pig; details: Cavia porcellus, 1 h; oral, 60 minutes before ovalbumin (0.2 mg/kg intravenous); passively sensitized guinea pigs; read-out: ED40-Value (40% average inhibition of the bronchoconstriction elicited by ovalbumin)
Protocol: The anti-asthmatic effect of compounds according to the invention was tested in anesthetized and ventilated guinea pigs. To induce an asthmatic reaction, the animals were passively sensitized by a single intraperitoneal injection of anti-ovalbumin serum. After 48 hours, the asthmatic reaction was elicited by intravenous challenge with 0.2 mg/kg of ovalbumin. The immediately resulting bronchoconstriction was measured as an increase in intratracheal pressure. Effects caused by histamine, serotonin and sympathic counterreaction were eliminated by intravenous pretreatment with 2.15 mg/kg of mepyramine, 46.4 μg/kg of propranolol, 4.64 mg/kg of atropine and 1 mg/kg of methysergide, all administered 5 minutes before challenge. Compounds according to the invention were administered orally 60 minutes before the administration of ovalbumin. The following […] for the inhibition of the bronchoconstriction elicited by ovalbumin, i.e. the effective doses causing a 40% average inhibition of the bronchoconstriction, were determined: […]

CC(=O)N(O)Cc1ccc(C(O)C#Cc2ccccc2)cc1 (racemic) [Example 1, N-Hydroxy-N-[4-[1-hydroxy-3-phenyl-prop-2-yn-1-yl]benzyl]acetamide]
IC50 (Leukotriene-synthesis): 2000 nM
Inhibition [%] of ex vivo iLTB4-formation (5-lipoxygenase): 93%
IC50 (12-lipoxygenase): 1000 nM
ED40 [1]: 17 mg/kg
